How the values were obtained:
[1] = tested on: S. aureus DSM 20231; assay: Bliss interaction score (quartile over a dose matrix) (fitness difference); higher = more antagonism (negative = synergy)
How it was run: (§1)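 Fitness was defined as normalised growth: OD595 at the start of stationary phase divided by the plate's robust no-drug mean and capped at 1. Single-drug fitness was inferred from combination measurements. The Bliss score is observed fitness minus the product of the single-drug values, summarised by quartiles across technical, biological and donor/recipient replicates.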

[2] = tested on: S. aureus Newman; assay: as above
How it was run: as §1

[3] = tested on: B. subtilis 168; assay: as above
How it was run: as §1

[4] = tested on: S. pneumoniae D39V; assay: as above
How it was run: as §1

[5] = tested on: S. aureus DSM 20231; assay: fitness (endpoint OD595 vs no drug) (fraction); higher = more growth
How it was run: (§2)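 Fitness was measured as bacterial growth in 384-well plates inoculated at OD595 0.01 (30 µl, or 55 µl for S. pneumoniae). Media were TSB, LB Lennox or CY, at 37 °C. OD595 was read every 30 min for 14 h and background-subtracted against the first reading. Fitness is OD595 at the transition into stationary phase divided by the robust mean of no-drug control wells, capped at 1.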

[6] = tested on: S. aureus Newman; assay: as above
How it was run: as §2

[7] = tested on: S. pneumoniae D39V; assay: as above
How it was run: as §2
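Wherever Bliss interaction score (quartile over a dose matrix) is given: first quartile when negative (synergy) and third quartile when positive (antagonism).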
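Wherever fitness (endpoint OD595 vs no drug) is given: OD595 on entry to stationary phase over no-drug wells; at most 1.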

Cc1onc(-c2ccccc2)c1C(=O)N[C@@H]1C(=O)N2[C@@H]1SC(C)(C)[C@@H]2C(=O)O [Oxacillin] + CN[C@H](CC(C)C)C(=O)N[C@H]1C(=O)N[C@@H](CC(N)=O)C(=O)N[C@H]2C(=O)N[C@H]3C(=O)N[C@H](C(=O)N[C@H](C(=O)O)c4cc(O)cc(O)c4-c4cc3ccc4O)[C@H](O)c3ccc(c(Cl)c3)Oc3cc2cc(c3O[C@@H]2O[C@H](CO)[C@@H](O)[C@H](O)[C@H]2O[C@H]2C[C@](C)(N)[C@H](O)[C@H](C)O2)Oc2ccc(cc2Cl)[C@H]1O [Vancomycin]
Settings	Bliss interaction score
[1]	-0.0751
[2]	-0.0696
[3]	-0.0574
[4]	-0.302

Settings	fitness
[5], first compound 0.0156 µg/mL, partner 0.1875 µg/mL	0.776
[5], first compound 0.0156 µg/mL, partner 0.375 µg/mL	0.867
[5], first compound 0.0156 µg/mL, partner 0.75 µg/mL	0.81
[5], first compound 0.0312 µg/mL, partner 0.1875 µg/mL	0.641
[5], first compound 0.0312 µg/mL, partner 0.375 µg/mL	0.73
[5], first compound 0.0312 µg/mL, partner 0.75 µg/mL	0.679
[5], first compound 0.0625 µg/mL, partner 0.1875 µg/mL	0.519
[5], first compound 0.0625 µg/mL, partner 0.375 µg/mL	0.516
[5], first compound 0.0625 µg/mL, partner 0.75 µg/mL	0.564
[6], first compound 0.0156 µg/mL, partner 0.1875 µg/mL	0.785
[6], first compound 0.0156 µg/mL, partner 0.375 µg/mL	0.756
[6], first compound 0.0312 µg/mL, partner 0.1875 µg/mL	0.715
[6], first compound 0.0312 µg/mL, partner 0.375 µg/mL	0.724
[6], first compound 0.0312 µg/mL, partner 0.75 µg/mL	0.712
[6], first compound 0.0625 µg/mL, partner 0.1875 µg/mL	0.652
[6], first compound 0.0625 µg/mL, partner 0.375 µg/mL	0.637
[7], first compound 0.01 µg/mL, partner 0.03125 µg/mL	0.988
[7], first compound 0.01 µg/mL, partner 0.0625 µg/mL	0.906
[7], first compound 0.01 µg/mL, partner 0.25 µg/mL	0.243
[7], first compound 0.01 µg/mL, partner 0.5 µg/mL	0.0401
[7], first compound 0.02 µg/mL, partner 0.03125 µg/mL	0.859
[7], first compound 0.02 µg/mL, partner 0.0625 µg/mL	0.734
[7], first compound 0.02 µg/mL, partner 0.25 µg/mL	0.149
[7], first compound 0.02 µg/mL, partner 0.5 µg/mL	0.0421
[7], first compound 0.04 µg/mL, partner 0.03125 µg/mL	0.271
[7], first compound 0.04 µg/mL, partner 0.0625 µg/mL	0.18
[7], first compound 0.04 µg/mL, partner 0.125 µg/mL	0.108
[7], first compound 0.04 µg/mL, partner 0.25 µg/mL	0.101
[7], first compound 0.04 µg/mL, partner 0.5 µg/mL	0.056

Cc1onc(-c2ccccc2)c1C(=O)N[C@@H]1C(=O)N2[C@@H]1SC(C)(C)[C@@H]2C(=O)O [Oxacillin] + Cn1nnc(-c2ccc(-c3ccc(N4C[C@H](CO)OC4=O)cc3F)cn2)n1 [Tedizolid]
Settings	Bliss interaction score
[1]	0.0921
[2]	-0.0682
[3]	-0.0469
[4]	0.0979

fitness
Settings	partner 0.03125 µg/mL	partner 0.0625 µg/mL	partner 0.125 µg/mL	partner 0.25 µg/mL	partner 0.5 µg/mL
[5], first compound 0.0156 µg/mL	–	0.791	0.731	0.312	–
[5], first compound 0.0312 µg/mL	–	0.687	0.593	0.279	–
[5], first compound 0.0625 µg/mL	–	0.51	0.503	0.261	–
[6], first compound 0.0156 µg/mL	–	0.746	0.673	0.425	–
[6], first compound 0.0312 µg/mL	–	0.693	0.579	0.24	–
[6], first compound 0.0625 µg/mL	–	0.562	0.481	0.159	–
[7], first compound 0.01 µg/mL	0.974	0.931	0.851	0.683	0.336
[7], first compound 0.02 µg/mL	0.935	0.933	0.835	0.644	0.39
[7], first compound 0.04 µg/mL	–	0.728	0.614	0.468	0.157

C[n+]1ccc(-c2cc[n+](C)cc2)cc1 [Paraquat] + CCCCCCCCCC(=O)N[C@@H]1[C@H]([C@@H]([C@H](O[C@H]1OC2=C3C=C4C=C2OC5=C(C=C(C=C5)[C@H]([C@H]6C(=O)N[C@@H](C7=C(C(=CC(=C7)O)OC8[C@H]([C@H]([C@@H]([C@H](O8)CO)O)O)O)C9=C(C=CC(=C9)[C@H](C(=O)N6)NC(=O)[C@@H]4NC(=O)[C@@H]1C2=CC(=CC(=C2)OC2=C(C=CC(=C2)[C@H](C(=O)N[C@H](CC2=CC(=C(O3)C=C2)Cl)C(=O)N1)N)O)O)O)C(=O)O)O[C@H]1[C@@H]([C@H]([C@@H]([C@H](O1)CO)O)O)NC(=O)C)Cl)CO)O)O [Teicoplanin]
main component drawn
Settings	Bliss interaction score
[1]	0.0665
[2]	0.0904
[3]	-0.044
[4]	0.0634

fitness, main component drawn
Settings	first compound 1.25 µg/mL	first compound 2.5 µg/mL	first compound 5 µg/mL
[5], partner 0.1562 µg/mL	0.957	0.954	0.967
[5], partner 0.3125 µg/mL	0.99	≥ 1	≥ 1
[5], partner 0.625 µg/mL	≥ 1	≥ 1	≥ 1
[6], partner 0.1562 µg/mL	≥ 1	≥ 1	≥ 1
[6], partner 0.3125 µg/mL	≥ 1	0.98	0.962
[6], partner 0.625 µg/mL	0.912	0.87	0.846

fitness, [6], one replicate, main component drawn
Settings	first compound 1.25 µg/mL	first compound 2.5 µg/mL	first compound 5 µg/mL
partner 0.62 µg/mL	0.795	0.782	0.775
partner 1.24 µg/mL	0.737	0.745	0.761
partner 2.48 µg/mL	0.336	0.402	0.117

C[n+]1ccc(-c2cc[n+](C)cc2)cc1 [Paraquat] + CN[C@H](CC(C)C)C(=O)N[C@H]1C(=O)N[C@@H](CC(N)=O)C(=O)N[C@H]2C(=O)N[C@H]3C(=O)N[C@H](C(=O)N[C@H](C(=O)O)c4cc(O)cc(O)c4-c4cc3ccc4O)[C@H](O)c3ccc(c(Cl)c3)Oc3cc2cc(c3O[C@@H]2O[C@H](CO)[C@@H](O)[C@H](O)[C@H]2O[C@H]2C[C@](C)(N)[C@H](O)[C@H](C)O2)Oc2ccc(cc2Cl)[C@H]1O [Vancomycin]
Settings	Bliss interaction score
[1]	0.0505
[2]	0.0613
[3]	0.0779
[4]	0.101

Settings	fitness
[5], first compound 1.25 µg/mL, partner 0.1875 µg/mL	0.908
[5], first compound 1.25 µg/mL, partner 0.375 µg/mL	0.956
[5], first compound 1.25 µg/mL, partner 0.75 µg/mL	0.963
[5], first compound 2.5 µg/mL, partner 0.1875 µg/mL	0.87
[5], first compound 2.5 µg/mL, partner 0.375 µg/mL	0.986
[5], first compound 2.5 µg/mL, partner 0.75 µg/mL	0.969
[5], first compound 5 µg/mL, partner 0.1875 µg/mL	0.861
[5], first compound 5 µg/mL, partner 0.375 µg/mL	≥ 1
[5], first compound 5 µg/mL, partner 0.75 µg/mL	0.964
[6], first compound 1.25 µg/mL, partner 0.1875 µg/mL	0.933
[6], first compound 1.25 µg/mL, partner 0.375 µg/mL	0.898
[6], first compound 2.5 µg/mL, partner 0.1875 µg/mL	0.911
[6], first compound 2.5 µg/mL, partner 0.375 µg/mL	0.898
[6], first compound 5 µg/mL, partner 0.1875 µg/mL	0.933
[6], first compound 5 µg/mL, partner 0.375 µg/mL	0.917
[6], first compound 5 µg/mL, partner 0.75 µg/mL	0.935
[7], first compound 1.5 µg/mL, partner 0.03125 µg/mL	0.998
[7], first compound 1.5 µg/mL, partner 0.0625 µg/mL	0.984
[7], first compound 1.5 µg/mL, partner 0.125 µg/mL	0.855
[7], first compound 3 µg/mL, partner 0.03125 µg/mL	1
[7], first compound 3 µg/mL, partner 0.0625 µg/mL	0.994
[7], first compound 3 µg/mL, partner 0.125 µg/mL	0.851
[7], first compound 6 µg/mL, partner 0.03125 µg/mL	≥ 1
[7], first compound 6 µg/mL, partner 0.0625 µg/mL	0.974
[7], first compound 6 µg/mL, partner 0.125 µg/mL	0.891

fitness, [7], one replicate
Settings	first compound 1.5 µg/mL	first compound 3 µg/mL	first compound 6 µg/mL
partner 0.25 µg/mL	0.18	0.249	0.372
partner 0.5 µg/mL	0.0697	0.0334	0.129

C[n+]1ccc(-c2cc[n+](C)cc2)cc1 [Paraquat] + Cn1nnc(-c2ccc(-c3ccc(N4C[C@H](CO)OC4=O)cc3F)cn2)n1 [Tedizolid]
Settings	Bliss interaction score
[1]	0.0784
[2]	-0.041
[3]	0.075
[4]	-0.0684

fitness
Settings	partner 0.03125 µg/mL	partner 0.0625 µg/mL	partner 0.125 µg/mL	partner 0.25 µg/mL
[5], first compound 1.25 µg/mL	–	0.866	0.644	0.117
[5], first compound 2.5 µg/mL	–	0.803	0.583	0.161
[5], first compound 5 µg/mL	–	0.836	0.588	0.137
[6], first compound 1.25 µg/mL	–	0.855	0.762	–
[6], first compound 2.5 µg/mL	–	0.902	0.805	–
[6], first compound 5 µg/mL	–	0.843	–	–
[7], first compound 1.5 µg/mL	0.926	0.948	0.86	–
[7], first compound 3 µg/mL	0.956	0.951	0.846	–
[7], first compound 6 µg/mL	0.932	0.934	0.817	–

fitness, [7], one replicate
Settings	first compound 1.5 µg/mL	first compound 3 µg/mL	first compound 6 µg/mL
partner 0.25 µg/mL	0.796	0.786	0.808
partner 0.5 µg/mL	0.626	0.603	0.602
